What was measured:
[1] = system: SGC-7901 human gastric adenocarcinoma cancer cell line; experiment: MTT in vitro antitumor (antiproliferative) assay, SGC-7901; type: cell-based; details: for IC50: Homo sapiens, SGC-7901, 72 h, read-out: IC50 SGC-7901
Protocol: (§1) The in vitro antitumor activities were evaluated on human cancer cell lines SGC-7901 and HeLa by the MTT assay, using irinotecan as the reference compound.
(§2) The in vitro antitumor activity was evaluated on two human cancer cell lines with the MTT method. SGC-7901 is a human gastric adenocarcinoma cancer cell line and HeLa is a human cervical carcinoma cell line. Cells were provided by the Jilin Province Tumor Institute. Cells were maintained in IMDM medium supplemented with 10% fetal calf serum, 2 mM glutamine, 100 U/mL penicillin, and 100 μg/mL streptomycin, at 37 °C in a humidified atmosphere containing 5% CO2. The human cancer lines SGC-7901 and HELA at a concentration of […] were incubated in a 96-well microtiter plate (100 μL in every well) for 24 h (37 °C, 5%CO2). Then the cells were incubated continuously for 72 h following various concentrations of test drugs were added. The concentrations are 50 μM, 10 μM, 2 μM, 0.4 μM, 0.08 μM, 0.016 μM, 0.0032 μM, respectively. After the 100 μL 0.05% MTT solution was added to each well, the plate was incubated for a further 4 h before removal of medium, the media removed. Formazan crystals were dissolved with 100 μL DMSO, then the absorbance was detected at 490 nm.

[2] = system: HeLa human cervical carcinoma cell line; experiment: MTT in vitro antitumor (antiproliferative) assay, HeLa; type: cell-based; details: 72 h, read-out: IC50 HeLa
Protocol: as §1, §2

AChE from electric eel = AChE from electric eel (Electrophorus electricus, UniProt O42275); experiment: AChE inhibition assay (modified Ellman method); type: biochemical; details: AChE IC50, electric eel AChE, phosphate buffer pH 7.3, 37 °C
Chain of AChE from electric eel (O42275 24-633): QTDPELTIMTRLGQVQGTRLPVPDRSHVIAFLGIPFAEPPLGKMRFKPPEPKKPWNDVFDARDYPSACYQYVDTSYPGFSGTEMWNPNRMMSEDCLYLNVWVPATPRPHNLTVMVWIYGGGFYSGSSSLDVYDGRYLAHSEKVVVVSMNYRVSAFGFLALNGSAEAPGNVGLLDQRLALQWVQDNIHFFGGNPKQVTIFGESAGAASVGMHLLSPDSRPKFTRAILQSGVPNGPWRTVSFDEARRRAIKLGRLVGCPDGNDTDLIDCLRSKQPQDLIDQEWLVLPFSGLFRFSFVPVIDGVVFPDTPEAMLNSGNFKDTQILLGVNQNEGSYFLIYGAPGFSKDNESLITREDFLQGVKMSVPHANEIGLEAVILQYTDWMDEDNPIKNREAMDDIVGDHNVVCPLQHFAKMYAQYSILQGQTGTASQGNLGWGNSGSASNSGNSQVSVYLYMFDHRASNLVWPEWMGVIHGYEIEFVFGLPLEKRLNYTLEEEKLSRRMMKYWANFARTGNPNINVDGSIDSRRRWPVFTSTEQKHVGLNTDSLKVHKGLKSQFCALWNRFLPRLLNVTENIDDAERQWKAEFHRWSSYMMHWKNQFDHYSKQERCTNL
Description: Irinotecan has been reported to be a potent inhibiter of AChE, and inhibition of this enzyme causes acute cholinergic diarrhea. Unlike irinotecan, the compounds we assayed were only weak inhibitors of AChE. […] One possible explanation is that the active site of AChE is present at the bottom of a gorge that is lined with hydrophobic amino acid residues. The terminal dipiperidino moiety in CPT-11 that interacts with amino acid residues within AChE plays a major role in enzyme inhibition, which has been confirmed by X-ray crystallographic studies.
The AChE inhibition by all compounds was studied according to a modification of the method of Ellman et al.. The activity was assayed with AChE from electric eel in the presence or absence of the test compounds in phosphate buffer (pH7.3). After the incubation at 37 °C for 1 min, 0.38 mM 5,5-dithiobisnitrobenzoic acid and 0.56 mM ATCh were added to the buffer. The changes in absorbance were read at 412 nm, per 15 s intervals for 3 min by a spectrophotometer (UV-2500, Shimadzu Corp., Kyoto, Japan).

[3] = Chemical stability of the prodrugs in PBS (HPLC); type: physicochemical; details: for Remaining Prodrugs 1 h pH 4.6 / Remaining Prodrugs 12 h pH 4.6: PBS pH 4.6, 37 °C; for Remaining Prodrugs 1 h pH 7.4 / Remaining Prodrugs 12 h pH 7.4: PBS pH 7.4, 37 °C
Protocol: They were stable at pH 4.6 at 37 °C for 12 h. Except for compound 5h, less than 35% of the prodrugs remained after incubation for 12 h in pH 7.4 buffer. […] For example, less than 30% of the prodrugs 7a–f remained, while more than 85% of the prodrugs 5a–h remained after incubation for 1 h in pH 7.4 buffer.
The stability of all compounds was investigated in PBS and human plasma by HPLC using a C18 analytical column. The mobile phase was composed of water and acetonitrile at a ratio of 70:30, respectively, containing 1% trifluoroacetic acid. The amount of the compound and its metabolite SN-38 were flowed at the rate of 0.8 mL·min^−1 and detected by the UV wavelength of 370 nm. Stability test in PBS: each compound was dissolved in PBS (pH 7.4 and pH 4.6), incubated at 37 °C and analyzed at 1, 3, 6, 12 h. Stability test in plasma: The test compounds were dissolved in DMSO and diluted to 1 mM by 0.9% physiological saline. Forty μL of each solution was added into plasma with a final concentration of 0.1 mM. The mixture was incubated in a 37 °C water bath following the vigorous vortex mixing for 15 s. Samples were analyzed at 1, 3, 6, 12 h. 400 μL of cold acetonitrile (containing 1% trifluoroacetic acid) was added to each sample, vortex-mixed for 15 s and centrifuged at 3500 rpm for 15 min at 4 °C.

[4] = system: human colon adenocarcinoma SW1116 xenografts; experiment: Tumor growth inhibition in human colon adenocarcinoma SW1116 xenografts in nude mice; type: in vivo; details: 60 mg/kg, injection in the tumor section once per day for 6 days, SW1116 xenograft nude mice, x ± SD
Protocol: The antitumor activity of 5e, compared with CPT-11 and SN-38, was investigated in human colon adenocarcinoma SW1116 xenografts in nude mice. The model animals were divided into four experimental groups, eight animals per group. Tested compouds were each administered by injection in the tumor section once per day for contiguous 6 days. The injection doses of test compound 5e, CPT-11, and SN-38 were 60 mg/kg, respectively. Using the vehicle group as the control, we tested the inhibitory activities of these compounds for 6 days and measured the changes in body weight and tumor size every 2 days. […] No toxic death occurred after drug treatment, and the body weight losses induced by 5e, CPT-11, and SN-38 at the given dose were similar.

Row | SMILES | IC50 [1] [nM] | IC50 [2] [nM] | IC50 (AChE from electric eel) [µM] | Remaining Prodrugs 1 h pH 4.6 [3] [%] | Remaining Prodrugs 12 h pH 4.6 [3] [%] | Remaining Prodrugs 1 h pH 7.4 [3] [%] | Remaining Prodrugs 12 h pH 7.4 [3] [%] | Tumor Weight [4] [g/10g] | fold greater antiproliferative activity (lower IC50) than irinotecan, SGC-7901 cells ([1]; IC50 ratio vs irinotecan) [fold]
1 | CCc1c2c(nc3ccc(OC(=O)NCC(=O)O)cc13)-c1cc3c(c(=O)n1C2)COC(=O)[C@]3(O)CC [Compound 5a, 10-OCO-(Gly-OH)-SN-38] | 2690 ± 110 | 30.4 | 19.8 | 100 | 98.4 | 85.3 | 14.8 |  | 
2 | CCc1c2c(nc3ccc(OC(=O)NC(C)C(=O)O)cc13)-c1cc3c(c(=O)n1C2)COC(=O)[C@]3(O)CC (stereo partly drawn) [Compound 5b, 10-OCO-(Ala-OH)-SN-38] | 1750 ± 600 | 9.85 |  |  |  |  |  |  | 
3 | CCc1c2c(nc3ccc(OC(=O)NC(C(=O)O)C(C)C)cc13)-c1cc3c(c(=O)n1C2)COC(=O)[C@]3(O)CC (stereo partly drawn) [Compound 5c, 10-OCO-(Val-OH)-SN-38] | 1880 ± 720 | 5.61 |  |  |  |  |  |  | 
4 | CCc1c2c(nc3ccc(OC(=O)NC(CCC(=O)O)C(=O)O)cc13)-c1cc3c(c(=O)n1C2)COC(=O)[C@]3(O)CC (stereo partly drawn) [Compound 5d, 10-OCO-(Glu-OH)-SN-38] |  |  |  | 98.1 | 92.5 | 85.2 | 8.6 |  | 
5 | CCc1c2c(nc3ccc(OC(=O)NC(CC(C)C)C(=O)O)cc13)-c1cc3c(c(=O)n1C2)COC(=O)[C@]3(O)CC (stereo partly drawn) [Compound 5e, 10-OCO-(Leu-OH)-SN-38] | 500 ± 190 | 1.82 |  |  |  |  |  | 0.17 ± 0.05 | 
6 | CCc1c2c(nc3ccc(OC(=O)NC(C(=O)O)C(C)CC)cc13)-c1cc3c(c(=O)n1C2)COC(=O)[C@]3(O)CC (stereo partly drawn) [Compound 5f, 10-OCO-(Ile-OH)-SN-38] | 760 ± 340 | 3.64 | 1.36 |  |  |  |  |  | 
7 | CCc1c2c(nc3ccc(OC(=O)N[C@H](CC(=O)O)C(=O)O)cc13)-c1cc3c(c(=O)n1C2)COC(=O)[C@]3(O)CC [Compound 5g, 10-OCO-(L-Asp-OH)-SN-38] | 980 ± 50 | 9.07 | 3.08 | 100 | 94.5 | 93.9 | 34.1 |  | 
8 | CCc1c2c(nc3ccc(OC(=O)N[C@@H](CC(=O)O)C(=O)O)cc13)-c1cc3c(c(=O)n1C2)COC(=O)[C@]3(O)CC [Compound 5h, 10-OCO-(D-Asp-OH)-SN-38] | 240 | < 3.2 | 7.43 | 100 | 94.5 | 93.4 | 52.2 |  | 30

— publication PMC6270839, “Synthesis and Biological Evaluation of Novel 10-Substituted-7-ethyl-10-hydroxycamptothecin (SN-38) Prodrugs” (Molecules, 2014)
